Source: US20230085307A1, “PYRIDAZINONE COMPOUND AND HERBICIDE” (NISSAN CHEMICAL CORPORATION, priority 2019, published 2023)

Key:
[1] = system: Italian ryegrass; assay: Test Example 4: herbicidal effect by soil treatment (Table 19, symbol K); assay type: in vivo, Italian ryegrass (Lolium multiflorum); conditions: amount of applied herbicide 320 g/ha
Outline: (§1)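 Applied as a water-diluted emulsion, the compound was sprayed onto soil covering newly sown seeds. Evaluation came three weeks after application, in a greenhouse held at 25° C. to 30° C.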

[2] = system: wild oat; assay: Test Example 5: herbicidal effect by foliage application, plastic box (Table 20, symbol I); assay type: in vivo, wild oat (Avena fatua); conditions: foliage application, 320 g/ha, three weeks after application
Outline: (§2)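 Sow seeds spot-wise in sterilized diluvial soil; cover with ~1.5 cm soil. Grow 14 days in greenhouse, 25° C. to 30° C. Spray foliage with emulsion diluted to predetermined amount. Rate effect after 3 weeks.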

[3] = system: blackgrass; assay: Test Example 5: herbicidal effect by foliage application, plastic box (Table 20, symbol J); assay type: in vivo, blackgrass (Alopecurus myosuroides); conditions: foliage application, 320 g/ha, three weeks after application
Outline: as §2

[4] = system: barnyard grass; assay: Test Example 5: herbicidal effect by foliage application, plastic box (Table 20, symbol H); assay type: in vivo, barnyard grass (Echinochloa crus-galli); conditions: foliage application, 320 g/ha, three weeks after application
Outline: as §2

[5] = system: false cleavers; assay: Test Example 5: herbicidal effect by foliage application, plastic box (Table 20, symbol Q); assay type: in vivo, false cleavers (Galium spurium); conditions: foliage application, 320 g/ha, three weeks after application
Outline: as §2

[6] = system: persian speedwell; assay: Test Example 4: herbicidal effect by soil treatment (Table 19, symbol R); assay type: in vivo, Persian speedwell (Veronica persica); conditions: amount of applied herbicide 320 g/ha
Outline: as §1

[7] = system: rice flat sedge; assay: Test Example 3: herbicidal effect by foliage application, Wagner pot (Table 18, symbol E); assay type: in vivo, rice flat sedge (Cyperus iria); conditions: 320 g/ha
Outline: (§3)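 Plants were sown in alluvial soil held under 0.1–0.5 cm standing water and grown 14 days in a greenhouse at 25–30 °C. An emulsifiable formulation, water-diluted to the set dose, was then sprayed onto the foliage, and effects were scored three weeks later using previously defined criteria.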

[8] = system: windgrass; assay: Test Example 4: herbicidal effect by soil treatment (Table 19, symbol L); assay type: in vivo, windgrass (Apera spica-venti); conditions: amount of applied herbicide 320 g/ha
Outline: as §1

[9] = system: wild oat; assay: Test Example 4: herbicidal effect by soil treatment (Table 19, symbol I); assay type: in vivo, wild oat (Avena fatua); conditions: amount of applied herbicide 320 g/ha
Outline: as §1

[10] = system: velvetleaf; assay: Test Example 5: herbicidal effect by foliage application, plastic box (Table 20, symbol M); assay type: in vivo, velvetleaf (Abutilon theophrasti); conditions: foliage application, 320 g/ha, three weeks after application
Outline: as §2

[11] = system: windgrass; assay: Test Example 5: herbicidal effect by foliage application, plastic box (Table 20, symbol L); assay type: in vivo, windgrass (Apera spica-venti); conditions: foliage application, 320 g/ha, three weeks after application
Outline: as §2

[12] = system: lambsquarters; assay: Test Example 5: herbicidal effect by foliage application, plastic box (Table 20, symbol O); assay type: in vivo, lambsquarters (Chenopodium album); conditions: foliage application, 320 g/ha, three weeks after application
Outline: as §2

[13] = system: barnyard grass; assay: Test Example 3: herbicidal effect by foliage application, Wagner pot (Table 18, symbol H); assay type: in vivo, barnyard grass (Echinochloa crus-galli); conditions: 320 g/ha
Outline: as §3

[14] = system: redroot pigweed; assay: Test Example 4: herbicidal effect by soil treatment (Table 19, symbol N); assay type: in vivo, redroot pigweed (Amaranthus retroflexus); conditions: amount of applied herbicide 320 g/ha
Outline: as §1

[15] = system: blackgrass; assay: Test Example 4: herbicidal effect by soil treatment (Table 19, symbol J); assay type: in vivo, blackgrass (Alopecurus myosuroides); conditions: amount of applied herbicide 320 g/ha
Outline: as §1

[16] = system: redroot pigweed; assay: Test Example 5: herbicidal effect by foliage application, plastic box (Table 20, symbol N); assay type: in vivo, redroot pigweed (Amaranthus retroflexus); conditions: foliage application, 320 g/ha, three weeks after application
Outline: as §2

[17] = system: Italian ryegrass; assay: Test Example 5: herbicidal effect by foliage application, plastic box (Table 20, symbol K); assay type: in vivo, Italian ryegrass (Lolium multiflorum); conditions: foliage application, 320 g/ha, three weeks after application
Outline: as §2

[18] = system: velvetleaf; assay: Test Example 4: herbicidal effect by soil treatment (Table 19, symbol M); assay type: in vivo, velvetleaf (Abutilon theophrasti); conditions: amount of applied herbicide 320 g/ha
Outline: as §1

[19] = system: lambsquarters; assay: Test Example 4: herbicidal effect by soil treatment (Table 19, symbol O); assay type: in vivo, lambsquarters (Chenopodium album); conditions: amount of applied herbicide 320 g/ha
Outline: as §1

[20] = system: Chinese sprangletop; assay: Test Example 3: herbicidal effect by foliage application, Wagner pot (Table 18, symbol D); assay type: in vivo, chinese sprangletop (Leptochloa chinensis); conditions: 320 g/ha
Outline: as §3

[21] = system: persian speedwell; assay: Test Example 5: herbicidal effect by foliage application, plastic box (Table 20, symbol R); assay type: in vivo, Persian speedwell (Veronica persica); conditions: foliage application, 320 g/ha, three weeks after application
Outline: as §2

[22] = system: southern crabgrass; assay: Test Example 5: herbicidal effect by foliage application, plastic box (Table 20, symbol F); assay type: in vivo, southern crabgrass (Digitaria ciliaris); conditions: foliage application, 320 g/ha, three weeks after application
Outline: as §2

[23] = system: southern crabgrass; assay: Test Example 4: herbicidal effect by soil treatment (Table 19, symbol F); assay type: in vivo, southern crabgrass (Digitaria ciliaris); conditions: amount of applied herbicide 320 g/ha
Outline: as §1

[24] = system: green foxtail; assay: Test Example 5: herbicidal effect by foliage application, plastic box (Table 20, symbol G); assay type: in vivo, green foxtail (Setaria viridis); conditions: foliage application, 320 g/ha, three weeks after application
Outline: as §2

[25] = system: barnyard grass; assay: Test Example 4: herbicidal effect by soil treatment (Table 19, symbol H); assay type: in vivo, barnyard grass (Echinochloa crus-galli); conditions: amount of applied herbicide 320 g/ha
Outline: as §1

[26] = system: chickweed; assay: Test Example 4: herbicidal effect by soil treatment (Table 19, symbol P); assay type: in vivo, common chickweed (Stellaria media); conditions: amount of applied herbicide 320 g/ha
Outline: as §1

[27] = system: green foxtail; assay: Test Example 4: herbicidal effect by soil treatment (Table 19, symbol G); assay type: in vivo, green foxtail (Setaria viridis); conditions: amount of applied herbicide 320 g/ha
Outline: as §1

[28] = system: chickweed; assay: Test Example 5: herbicidal effect by foliage application, plastic box (Table 20, symbol P); assay type: in vivo, common chickweed (Stellaria media); conditions: foliage application, 320 g/ha, three weeks after application
Outline: as §2

CCCC(=O)Oc1c(C)nn(C)c(=O)c1-c1c(-c2ccc(C)c(C)c2)sc2ccccc12 [1-066]
herbicidal effect rating, K: Italian ryegrass [1]: 0 (Herbicidal rate of 5% or less (almost no effect))
herbicidal effect grade, I: wild oat [2]: 1 (Herbicidal rate of 5% or more and less than 20%)
herbicidal effect grade, J: blackgrass [3]: 0 (Herbicidal rate of 5% or less (almost no effect))
herbicidal effect grade, H: barnyard grass [4]: 2 (Herbicidal rate of 20% or more and less than 40%)
herbicidal effect grade, Q: false cleavers [5]: 2 (Herbicidal rate of 20% or more and less than 40%)
herbicidal effect rating, R: persian speedwell [6]: 4 (Herbicidal rate of 70% or more and less than 90%)
herbicidal effect on E (rice flat sedge), rating 0-5 [7]: 5 (Herbicidal rate of 90% or more (almost completely withered))
herbicidal effect rating, L: windgrass [8]: 0 (Herbicidal rate of 5% or less (almost no effect))
herbicidal effect rating, I: wild oat [9]: 0 (Herbicidal rate of 5% or less (almost no effect))
herbicidal effect grade, M: velvetleaf [10]: 4 (Herbicidal rate of 70% or more and less than 90%)
herbicidal effect grade, L: windgrass [11]: 0 (Herbicidal rate of 5% or less (almost no effect))
herbicidal effect grade, O: lambsquarters [12]: 0 (Herbicidal rate of 5% or less (almost no effect))
herbicidal effect on H (barnyard grass), rating 0-5 [13]: 2 (Herbicidal rate of 20% or more and less than 40%)
herbicidal effect rating, N: redroot pigweed [14]: 0 (Herbicidal rate of 5% or less (almost no effect))
herbicidal effect rating, J: blackgrass [15]: 0 (Herbicidal rate of 5% or less (almost no effect))
herbicidal effect grade, N: redroot pigweed [16]: 4 (Herbicidal rate of 70% or more and less than 90%)
herbicidal effect grade, K: Italian ryegrass [17]: 0 (Herbicidal rate of 5% or less (almost no effect))
herbicidal effect rating, M: velvetleaf [18]: 0 (Herbicidal rate of 5% or less (almost no effect))
herbicidal effect rating, O: lambsquarters [19]: 0 (Herbicidal rate of 5% or less (almost no effect))
herbicidal effect on D (Chinese sprangletop), rating 0-5 [20]: 0 (Herbicidal rate of 5% or less (almost no effect))
herbicidal effect grade, R: persian speedwell [21]: 5 (Herbicidal rate of 90% or more (almost completely withered))
herbicidal effect grade, F: southern crabgrass [22]: 2 (Herbicidal rate of 20% or more and less than 40%)
herbicidal effect rating, F: southern crabgrass [23]: 0 (Herbicidal rate of 5% or less (almost no effect))
herbicidal effect grade, G: green foxtail [24]: 3 (Herbicidal rate of 40% or more and less than 70%)
herbicidal effect rating, H: barnyard grass [25]: 0 (Herbicidal rate of 5% or less (almost no effect))
herbicidal effect rating, P: chickweed [26]: 2 (Herbicidal rate of 20% or more and less than 40%)
herbicidal effect rating, G: green foxtail [27]: 0 (Herbicidal rate of 5% or less (almost no effect))
herbicidal effect grade, P: chickweed [28]: 5 (Herbicidal rate of 90% or more (almost completely withered))
